# Test results reported in patent US6627664B2, “Perylenequinones for use as sonosensitizers” (Altachem Pharma Ltd., priority 2001, dated 2003).
# Like-named read-outs stand apart in the source and are kept apart here.
# Key:
# cells = settings: for Photopotentiation Factor: LD50 dark divided by LD50 light; for LD50 Light: light dose not fixed, 0.75-1.0 J/cm2 of 630 nm light
# Text: As used herein, “photopotentiation factor” refers to the property of the compound(s) to exert light- or sound-mediated toxicity in excess of its (their) inherent unactivated toxicity. […] Where the term “LD50” has been used above, the term “IC50” may be substituted, to address the bioassays that concern metabolic activity rather than the endpoint of lethality, loss of reproductive capability, or clonogenic death. The relative photoactivation efficiency of a compound may also be determined using a clonogenic assay, an assay that is well known to those skilled in the art.
# In accordance with the present invention, a desirable PQP derivative is one that is non-toxic (or of low toxicity) at high drug concentrations without activation, i.e., without light (also referred to as “dark”), and/or without sound, and is toxic at low concentrations when light of the appropriate wavelength, or sound of the appropriate frequency, is applied. As is recognized by those skilled in the art, the most desirable compounds are those that provide a wide range of non-toxic doses in an unactivated state, as this characteristic provides an increased safety factor for the patient.
# [1] = Singlet oxygen (1O2) yield; type: physicochemical
# [2] = Light absorption properties (red spectral region, 630 nm); type: physicochemical; settings: for A630: absorbance at 630 nm
# HL-60 cells = test: Sonodynamic toxicity (insonation, surviving fraction); type: cell-based, human
# Description: Sonodynamic toxicity of two perylenequinone derivatives in human promyelocytic leukemia cells in vitro, with respect to a positive control, hematoporphyrin at 1 mM.
# HL-60 cells were treated with perylenequinone sensitizers and insonated as described above. The surviving fractions were plotted against sensitizer concentration. […] Cell survival decreased steeply over the next two decades of sensitizer concentration.
# sarcoma 180 cells = settings: cited from earlier work
compound,measurement,setting,value
"2-(N,N-diethyl-amino) ethylamine-HB [HBDD-R2]",Photopotentiation Factor,cells,>3.3
same,LD50 Light,cells,7.5 µM
same,^1O2 Yield,[1],0.36
"2-(N,N-dimethyl-amino) propylamine-HB [HBDP-R1]",toxicity (in words),cells,average or lower than average toxicity
same,Photopotentiation Factor,cells,>16.6-50
same,LD50 Light,cells,0.5 to 1.5 µM
same,LD50 Dark,cells; without light,>25 µM
same,^1O2 Yield,[1],0.42
2-morpholino-ethyl-aminated-HB [HBAM-R1],LD50 Dark,cells,>25 µM
same,Photopotentiation Factor,cells,>6.25
same,LD50 Light,cells,4 µM
same,^1O2 Yield,[1],0.70
same,Abs. Peak in red Spectral region,[2],658 nm
"5,8-dibromo-HB [DBHB]",LD50 Dark,cells,10 µM
same,Photopotentiation Factor,cells,3.3
same,LD50 Light,cells,3 µM
same,^1O2 Yield,[1],0.62
same,maximum sonotoxic effect,"HL-60 cells; 100 μM to 1000 μM, versus 1000 μM Hp control",comparable to that of the Hp control
same,sonotoxicity,HL-60 cells; up to 100 μM,negligible sonotoxicity
"COc1cccc2c1C(=O)c1c(O)c3c(c(O)c1C2=O)CC(O)(C(=O)COC(=O)CCCCCC(=O)O)CC3OC1OC(C)C(O)C(O)C1F (stereo not shown) [FAD 104, 3′-deamino-2′-fluoro-3′-hydroxydoxorubicin-14-pimelate]",rate of ultrasound-induced cell damage,"sarcoma 180 cells; 80 μM, insonated, versus ultrasound alone",doubled
same,cell damage with compound alone,sarcoma 180 cells; no ultrasound,no cell damage
Cystamine-HB [HBAC-R1],Photopotentiation Factor,cells,12.5
same,LD50 Light,cells,1 µM
same,LD50 Dark,cells; without light,12.5 µM
same,^1O2 Yield,[1],0.40
same,Abs. Peak in red Spectral region,[2],646 nm
same,Extinction Coefficient (× 10^−3) (630 nm),[2],3.88 × 10^−3
same,A630,[2],0.388
same,Amax/solvent,[2]; solvent CHCl3,0.417/CHCl3
Cystamine-HB [HBAC-R2],Photopotentiation Factor,cells,2.5
same,LD50 Light,cells,5 µM
same,LD50 Dark,cells; without light,12.5 µM
same,^1O2 Yield,[1],0.31
same,Abs. Peak in red Spectral region,[2],600 nm
same,Extinction Coefficient (× 10^−3) (630 nm),[2],2.44 × 10^−3
same,A630,[2],0.244
same,Amax/solvent,[2]; solvent DMSO,0.337/DMSO
Deacetylated-HA [DAHA],LD50 Dark,cells,>25 µM
same,LD50 Light,cells,>5 µM
same,^1O2 Yield,[1],0.51
same,Abs. Peak in red Spectral region,[2],622 nm
same,Extinction Coefficient (× 10^−3) (630 nm),[2],5.70 × 10^−3
same,A630,[2],0.570
